Experimental data: patent US5554620A, “Substituted 6,11-ethano-6,11-dihydrobenzo[b] quinolizinium salts and compositions and methods of use thereof” (Sterling Winthrop Inc., priority 1994, dated 1996)

Assays:
rat ischemia model = assay: Middle cerebral artery occlusion (MCAo) model with reperfusion; type: in vivo, rat (male Long Evans hooded and male Sprague-Dawley); conditions: i.v. infusion started 30 min before occlusion
Method: Middle Cerebral Artery Occlusion (MCAo) Model with Reperfusion
A 3-vessel rat ischemia model similar to those that have been extensively described in the literature (e.g. Stroke 17, 738-743 (1986), Stroke 20, 513-518 (1989)) was utilized. Under isoflurane anesthesia the right middle cerebral artery (via an approach through the temporalis muscle) and both common carotid arteries were reversibly occluded for varying durations between 60 minutes and 120 minutes. Both male Long Evans hooded rats and male Sprague-Dawley rats weighing between 300 and 420 grams were used. The animals' temperature was maintained throughout the study with heat lamps. A femoral vein and the ipsilateral femoral artery were cannulated for intravenous infusion and arterial blood pressure measurements and blood samples. Infusions of the test compounds were initiated 30 minutes prior to occlusion at a rate of 40 microliters per minute. After reinitiation of blood flow the animals were allowed to regain consciousness. Six hours post-initiation of ischemia the animals were sacrificed and the extent of neuronal damage was quantified with TTC staining. The results are expressed as a percent inhibition (±SEM) of infarct and penumbra region.

PCP receptor = assay: [3H]TCP radioreceptor assay (binding to PCP recognition sites); parameters: species or system rat (male Sprague-Dawley, whole brain); conditions: [3H]TCP approx. 1 nM, rat brain membranes; mean of at least two determinations
How it was run: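 Rat whole-brain membranes (Tris-HCl, pH 7.7), 0.5 mg protein/tube, incubated with ~1 nM [3H]TCP for 25 min at room temperature; non-specific binding defined with 100 μM PCP. Bound ligand collected by filtration and counted by scintillation; Ki from at least two determinations, or % inhibition at 10 μM.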

[1] = test system: cultured cortical neurons; assay: Antagonism of NMDA-induced neurotoxicity in cultured cortical neurons (LDH release); type: cell-based, mouse (Swiss-Webster); conditions: 500 μM NMDA, 30 min exposure, LDH 24 h later
Method: Antagonism of NMDA-induced Neurotoxicity in Cultured Neurons
Preparation of Cultured Cortical Neurons
Pregnant, Swiss-Webster mice were obtained from Taconic Farms (Germantown, New York) and sacrificed 16 days post conception. Fetuses were removed and placed in a sterile dish containing Hank's balanced salt solution (HBSS), pH 7.4. Brain cortices were dissected, meninges were removed, the tissue was minced and placed into a solution of HBSS containing 0.25% (w/v) trypsin at 37° C. for 15 minutes. Tissue was then triturated with a sterile pasteur pipet, diluted with minimal essential media (Gibco 330-1430), pH 7.4, supplemented with 10% horse serum, 10% fetal calf serum, 2 mM 1-glutamine, 21 mM d-glucose, 2.2 g/L sodium bicarbonate, 1000 U/mL penicillin, and 1,000 μg/mL streptomycin. Cells were plated onto Falcon primaria 96 well plates at a final density of 50,000 cells/well and incubated at 37 °C in the presence of 5% (v/v) carbon dioxide. After 5 days, plating media was replaced with maintenance media containing minimal essential media (Gibco 330-1430), pH 7.4, supplemented with 10% horse serum, […], 21 mM d-glucose, 2.2 g/L sodium bicarbonate, 1,000 U/mL penicillin, 1,000 μg/mL streptomycin, and 10 μM cytosine arabinoside. On days 7 and 10, media was replaced with maintenance media as above lacking the cytosine arabinoside. Experiments were conducted on day 13.
Neuroprotection Assessment
Day 13 cultured cortical neurons were washed twice with minimal essential media, pH 7.4 and then exposed for 30 minutes to 500 μM N-methyl-D-aspartic acid (NMDA) with or without varying concentrations of test agents. […] MK-801 and test agents were prepared in minimal essential media supplemented with 21 mM d-glucose and 2.2 g/L sodium bicarbonate (MEM). After 30 minutes, media was replaced with MEM alone. Exposure of neurons to test agents was limited to the NMDA treatment period. Twenty-four hours after removal of NMDA, an aliquot of media from each well was removed for assessment of cell injury by determining lactate dehydrogenase (LDH) activity by the method of Wroblewski and LaDue Proc. Soc. Exp. Biol. Med. 1955, 90, 210-213. The results are expressed as an IC50 (in nM) value (concentration causing 50% inhibition) for the antagonism of NMDA--inducedneurotoxicity. Table 3 summarizes the results obtained from the testing of representative compounds of the invention in the [^3 H]TCP radioreceptor assay as well as in the antagonism of NMDA-induced neurotoxicity in cultured neurons.

Row | SMILES | % Inhibition (± SEM) of infarct and penumbra region (rat ischemia model; 0.01 mg test compound/kg/min) [%] | % Inhibition (± SEM) of infarct and penumbra region (rat ischemia model; 0.03 mg test compound/kg/min) [%] | % Inhibition (± SEM) of infarct and penumbra region (rat ischemia model; 0.1 mg test compound/kg/min) [%] | Ki (PCP receptor) [nM] | IC50 ([1]; Mus musculus, Cortical neurone) [nM] | IC50 [1] [nM]
1 | c1ccc2c(c1)C1CC(c3ccoc3)(c3ccoc3)C2c2cccc[n+]21 (single isomer, unassigned; (+)) [Example 40(b), (+)-6,11-ethano-12,12-di(3-furanyl)-6,11-dihydrobenzo[b]quinolizinium chloride 3/2 hydrate] | 1 ± 31 | 49 ± 25 | 47 ± 18 | 1.66 | 20 | 
2 | Oc1cccc2c1C1c3cccc[n+]3C2CC1(c1ccoc1)c1ccoc1.[Cl-] (stereo not drawn) [Example 68(c), 6,11-ethano-12,12-di(3-furyl)-10-hydroxy-6,11-dihydrobenzo[b]quinoliziniumchloride] |  |  | 34 ± 14 | 1.5 |  | 
3 | [Cl-].c1ccc2c(c1)C1CC(c3ccoc3)(c3ccoc3)C2c2cccc[n+]21 (stereo not drawn) [39(c), 6,11-ethano-12,12-di(3-furanyl)-6,11-dihydrobenzo[b]quinolizinium chloride] |  | 20 ± 7 | 34 ± 6 | 1.79 | 45.4 | 
4 | c1coc(C2(c3ccco3)CC3c4ccccc4C2c2cccc[n+]23)c1 (stereo not drawn) [57(d), 6,11-ethano-12,12-di(2-furanyl)-6,11-dihydrobenzo[b]quinolizinium chloride] |  |  |  | 1.9 |  | 36
5 | Oc1ccc2c(c1)C1c3cccc[n+]3C2CC1(c1cc[nH]n1)c1cc[nH]n1 (stereo not drawn) [195(c), 12,12-di(pyrazol-3-yl)-9-hydroxy-6,11-ethano-6,11-dihydrobenzo[b]quinolizinium chloride] |  |  |  | 12.6 | 30.8 | 
